Data on 18 compounds can be found in patent US6872850B2, “Small molecule inhibitors of secretion of proteins encoded by ARE-mRNAs” (Message Pharmaceuticals, priority 2001, dated 2005).

The experiment deals with 3′ UTR of the TNFα gene. Description: cell-based luciferase reporter assay, 5B cell line (luciferase gene with entire 3′ UTR of the TNFα gene). The conditions noted are these: for Luciferase 5B (% of DMSO control): 1 h, then LPS, 5B cell line. Details: species or system mouse. On the procedure:
The candidate compounds were tested in a high-throughput, cell-based luciferase reporter assay. For this assay, a commercially available mouse macrophage Raw 264.7 cell line was stably transfected with a construct containing the CMV promoter operably linked to the luciferase gene which was modified using standard molecular biology techniques to contain the entire 3′ UTR of the TNFα gene. This 3′ UTR is important for the stability and translation of TNFα in cells. To control for effects of candidate compounds that are not specific for TNFα, a control cell line, called “3B,” was generated by stably transfecting the 264.7 cell line with a commercially available construct containing the luciferase gene (without the addition of the heterologous 3′ UTR of the TNFα gene) under the regulation of the CMV promoter.
[…] Then, lipopolysaccharide (LPS) was added to stimulate TNFα secretion. Luciferase activity was measured by determining the luminescence intensity due to the reaction of lucifern, ATP, Mg^2+, and molecular O2 (see, for example, Ausubel et al., supra). The luciferase activity in a cell incubated with a candidate compound was reported as a percentage of the luciferase activity for the corresponding cell incubated with DMSO vehicle only.
After correction for any effect caused by the administration of the DMSO only vehicle control, the effect of a candidate compound on luciferase activity in the 3B control cell line represents the global effect of the compound on any step required for expression or activity of luciferase protein, such as luciferase gene transcription, mRNA processing, mRNA stability, translation, protein stability, or enzymatic activity. […] In this case, the luciferase activity in the 5B cell line treated with the DMSO vehicle control is similar to the luciferase activity in the control 3B cell line treated with the candidate compound. Thus, the response of the 5B cell line (as a percent of the DMSO control) and the ratio of the luciferase activity in the 5B cell line (as a percent of the DMSO control) to the luciferase activity in the control 3B cell line (as a percent of the DMSO control) are similar. In desirable embodiments, the response of the 5B cell line and the 5B/3B ratio differ by less than 50, 40, 30, 20, 10, or 5%.
In general terms: Reporter assays use an easily measured gene product as a stand-in for the process of interest.

[1] abbreviates: 10 μM compound, ratio of 5B to control 3B cell line.

On to `O=C(N[C@@H](Cc1ccccc1)C(=O)N1CCN(C(=O)CCCC(=O)N2CCN(c3ccccc3)CC2)CC1)c1ccc(C(=O)c2ccccc2)cc1` [MES 10246], for which, under “10 μM compound”, the “Luciferase 5B (% of DMSO control)” value is 46 % of DMSO control. The “Luciferase 5B/3B (% of DMSO control 5B)/(% of DMSO control 3B)” value under setting [1] was 74 (% of DMSO control 5B)/(% of D.
On the same counts, the results for `CCCCC(NC(=O)c1ccc(C(=NNC(=N)N)c2ccccc2)cc1)C(=O)N1CCN(C(=O)C(Cc2ccccc2)NC(=O)c2ccc(C(=NNC(=N)N)c3ccccc3)cc2)CC1` (mixture of isomers) [MES 10184] are 22 % of DMSO control and 35 (% of DMSO control 5B)/(% of DMSO control 3B).
With `CC(=NNC(=N)N)c1cccc(C(=O)NC(C)C(=O)N2CCN(C(=O)C(Cc3ccccc3)NC(=O)c3ccc(C(=NNC(=N)N)c4ccccc4)cc3)CC2)c1` (mixture of isomers) [MES 11465], the “effect on luciferase activity in the 5B cell line (luciferase assay), in words” value (shortened to “effect on luciferase activity”) is “decrease TNFα secretion”. In addition, for the setting “10 μM compound”, the “Luciferase 5B (% of DMSO control)” value was 72 % of DMSO control. Besides, the “Luciferase 5B/3B (% of DMSO control 5B)/(% of DMSO control 3B)” value under setting [1] is reported as 71 (% of DMSO control 5B)/(% of D.
For the compound `CC(C)CC(NC(=O)c1ccc(Cl)cc1)C(=O)N1CCN(C(=O)C(Cc2ccccc2)NC(=O)c2ccc(C(=NNC(=N)N)c3ccccc3)cc2)CC1` (mixture of isomers) [MES 10227], the “Luciferase 5B (% of DMSO control)” value (10 μM compound) is reported as 34 % of DMSO control. Also, under setting [1], the “Luciferase 5B/3B (% of DMSO control 5B)/(% of DMSO control 3B)” value was 39 (% of DMSO control 5B)/(% of D.
The matching figures for `CC(NC(=O)c1ccc(C(=O)c2ccccc2)cc1)C(=O)N1CCN(C(=O)CCC(=O)N2CCN(c3ccccc3)CC2)CC1` (centres unmarked) [MES 10304]: 49 % of DMSO control and 64 (% of DMSO control 5B)/(% of D.
Consider `CC(=NNC(=N)N)c1cccc(C(=O)NC(CC2CCCCC2)C(=O)N2CCN(C(=O)C(Cc3ccccc3)NC(=O)c3ccc(C(=NNC(=N)N)c4ccccc4)cc3)CC2)c1` (mixture of isomers) [MES 10181], for which the “effect on luciferase activity” value is reported as “inhibited TNFα secretion”. The “Luciferase 5B (% of DMSO control)” value (10 μM compound) is reported as 17 % of DMSO control. Moreover, the “Luciferase 5B/3B (% of DMSO control 5B)/(% of DMSO control 3B)” value under setting [1] is reported as 49 (% of DMSO control 5B)/(% of DMSO control 3B).
Take `C/C(=N\N=C(N)N)c1cccc(C(=O)NCCNC(=O)[C@H](Cc2ccccc2)NC(=O)c2ccc(C(=O)c3ccccc3)cc2)c1.O=C(O)C(F)(F)F` [MES 10093, (4-E)-Guanylhydrazone of 1-[(S)-N-(4-benzoylbenzoyl)-2-amino-3-phenylpropanoyl]-4-(3-acetylbenzoyl)-1,4-diazabutane trifluoroacetate]: the “Luciferase 5B/3B (% of DMSO control 5B)/(% of DMSO control 3B)” value (10 μM compound (Table 11)) is reported as 47 (% of DMSO control 5B)/(% of D.
Consider `CC(C)CC(NC(=O)c1ccc(C(=NNC(=N)N)c2ccccc2)cc1)C(=O)N1CCN(C(=O)C(Cc2ccccc2)NC(=O)CCc2cccnc2)CC1` (mixture of isomers) [MES 10234], for which the “Luciferase 5B (% of DMSO control)” value (10 μM compound) is reported as 60 % of DMSO control. For the same compound, the “Luciferase 5B/3B (% of DMSO control 5B)/(% of DMSO control 3B)” value under setting [1] is given as 58 (% of DMSO control 5B)/(% of D.
Take `CC(C)CC(NC(=O)c1ccc2ccccc2c1)C(=O)N1CCN(C(=O)C(Cc2ccccc2)NC(=O)c2ccc(C(=NNC(=N)N)c3ccccc3)cc2)CC1` (mixture of isomers) [MES 10228]: the “Luciferase 5B (% of DMSO control)” value (10 μM compound) is 38 % of DMSO control. For the same compound, the “Luciferase 5B/3B (% of DMSO control 5B)/(% of DMSO control 3B)” value under setting [1] is listed as 40 (% of DMSO control 5B)/(% of D.
For `CC(=NNC(=N)N)c1cccc(C(=O)NC(CC(C)C)C(=O)N2CCN(C(=O)C(Cc3ccc([N+](=O)[O-])cc3)NC(=O)c3ccc(C(=NNC(=N)N)c4ccccc4)cc3)CC2)c1` (mixture of isomers) [MES 10257], the “Luciferase 5B (% of DMSO control)” value (10 μM compound) was 34 % of DMSO control. The “Luciferase 5B/3B (% of DMSO control 5B)/(% of DMSO control 3B)” value under setting [1] was 60 (% of DMSO control 5B)/(% of DMSO control 3B).
`CC(=NNC(=N)N)c1cccc(C(=O)NC(C(=O)N2CCN(C(=O)C(Cc3ccccc3)NC(=O)c3ccc(C(=NNC(=N)N)c4ccccc4)cc3)CC2)C(C)C)c1` (mixture of isomers) [MES 10183]: the “effect on luciferase activity” value is “inhibited TNFα secretion”. For the setting “10 μM compound”, the “Luciferase 5B (% of DMSO control)” value was 58 % of DMSO control. Under setting [1], the “Luciferase 5B/3B (% of DMSO control 5B)/(% of DMSO control 3B)” value is listed as 57 (% of DMSO control 5B)/(% of DMSO control 3B).
Turning to `CN1CCN(C(=O)CCC(=O)N2CCN(C(=O)[C@H](Cc3ccccc3)NC(=O)c3ccc(C(=O)c4ccccc4)cc3)CC2)CC1` [MES 10301], the “Luciferase 5B (% of DMSO control)” value (10 μM compound) is listed as 76 % of DMSO control. Moreover, the “Luciferase 5B/3B (% of DMSO control 5B)/(% of DMSO control 3B)” value under setting [1] is 105 (% of DMSO control 5B)/(% of D.
As for `CC(=NN=C(N)N)c1cccc(C(=O)NC(CC(C)C)C(=O)NCCCNC(=O)C(C)NC(=O)c2ccc(C(=NN=C(N)N)c3ccccc3)cc2)c1` (mixture of isomers) [MES 11411], the “effect on luciferase activity” value is “decrease TNFα secretion”. Besides, the “Luciferase 5B (% of DMSO control)” value (10 μM compound) is 65 % of DMSO control. The “Luciferase 5B/3B (% of DMSO control 5B)/(% of DMSO control 3B)” value under setting [1] was 71 (% of DMSO control 5B)/(% of D.
Consider `CC(C)CC(NC(=O)c1ccc([N+](=O)[O-])cc1)C(=O)N1CCN(C(=O)C(Cc2ccccc2)NC(=O)c2ccc(C(=NNC(=N)N)c3ccccc3)cc2)CC1` (mixture of isomers) [MES 10224], for which the “Luciferase 5B (% of DMSO control)” value (10 μM compound) is recorded as 36 % of DMSO control. Further, the “Luciferase 5B/3B (% of DMSO control 5B)/(% of DMSO control 3B)” value under setting [1] was 37 (% of DMSO control 5B)/(% of D.
With `CC(=NN=C(N)N)c1cccc(C(=O)NC(CC(C)C)C(=O)N2CCN(C(=O)C(CC(C)C)NC(=O)c3ccc(C(=NN=C(N)N)c4ccccc4)cc3)CC2)c1` (mixture of isomers) [MES 11408], the “effect on luciferase activity” value is reported as “decrease TNFα secretion”. For the same compound, the “Luciferase 5B (% of DMSO control)” value (10 μM compound) is 59 % of DMSO control. Moreover, the “Luciferase 5B/3B (% of DMSO control 5B)/(% of DMSO control 3B)” value under setting [1] was 54 (% of DMSO control 5B)/(% of D.
Turning to `CC(=O)N[C@@H](Cc1ccccc1)C(=O)N1CCN(C(=O)[C@H](CC(C)C)NC(=O)c2cccc(/C(C)=N/NC(=N)N)c2)CC1` [MES 10306], the “Luciferase 5B (% of DMSO control)” value (10 μM compound) is 85 % of DMSO control. Further, the “Luciferase 5B/3B (% of DMSO control 5B)/(% of DMSO control 3B)” value under setting [1] was 125 (% of DMSO control 5B)/(% of D.
In the case of `CC(C)CC(NC(=O)c1ccc(C(=NNC(=N)N)c2ccccc2)cc1)C(=O)N1CCN(C(=O)C(Cc2ccccc2)NC(=O)c2cnccn2)CC1` (mixture of isomers) [MES 10235], where the note is “10 μM compound”, the “Luciferase 5B (% of DMSO control)” value is on record as 70 % of DMSO control. Further, the “Luciferase 5B/3B (% of DMSO control 5B)/(% of DMSO control 3B)” value under setting [1] is 75 (% of DMSO control 5B)/(% of D.
For the compound `CC(C)CC(NC(=O)c1ccc(I)cc1)C(=O)N1CCN(C(=O)C(Cc2ccccc2)NC(=O)c2ccc(C(=NNC(=N)N)c3ccccc3)cc2)CC1` (mixture of isomers) [MES 10226], the “effect on luciferase activity” value is “greatest inhibitor activity”. Also, the “Luciferase 5B (% of DMSO control)” value (10 μM compound) was 23 % of DMSO control. In addition, the “Luciferase 5B/3B (% of DMSO control 5B)/(% of DMSO control 3B)” value under setting [1] was 26 (% of DMSO control 5B)/(% of D.
